Measurements taken from article PMC7687369 (Antiviral Research, 2020).

How the values were obtained:
SARS-CoV-2 [1] = format: cell-based; settings: Vero E6-hTMPRSS2 cells
SARS-CoV-2 [2] = experiment: Viral replication assay in Vero E6-hTMPRSS2 cells; format: cell-based
SARS-CoV-2 [3] = format: cell-based
SARS-CoV = settings: cited from earlier work
MERS-CoV = settings: cited from earlier work

**Q.** Which “selectivity between viral-induced cytopathogenicity and inhibition of cell viability” value (SARS-CoV-2 [1]) does the source give for CNc1ccc2oc(C[C@H]3O[C@@]4(CC[C@H]3C)O[C@H]([C@H](C)C(=O)c3ccc[nH]3)[C@H](C)C[C@H]4C)nc2c1C(=O)O [Calcimycin] here?
**A.** 18 fold

**Q.** With CCN(CCO)CCCC(C)Nc1ccnc2cc(Cl)ccc12 (stereo not drawn) [Hydroxychloroquine] as the molecule, how does the “anti-viral activity in the cytopathogenic effect screen (in words)” value (SARS-CoV-2 [1]) read?
**A.** negligible anti-viral activity

**Q.** And the “inhibition of viral replication (in words)” value (SARS-CoV-2 [2])?
**A.** did not efficiently inhibit viral replication

**Q.** What about the “antiviral activity, SARS-CoV-2 RNA (in words)” value (SARS-CoV-2 [3]) of the same molecule?
**A.** effective in wildtype Vero E6 cells at high micromolar concentrations

**Q.** With C[C@H](CCC(=O)O)C[C@H](C)C[C@H](C)C(=O)/C=C(\O)[C@H](C)C[C@H](C)C/C=C/[C@@H](C)[C@@H](O)[C@@H](C)[C@@H](O)C[C@@H]1CC[C@@](C)([C@H]2CC[C@@](C)([C@@H](C)O)O2)O1 [Ionomycin] as the molecule, how does the “selectivity between viral-induced cytopathogenicity and inhibition of cell viability” value (SARS-CoV-2 [1]) read?
**A.** 5 fold

**Q.** Which “selectivity between viral-induced cytopathogenicity and inhibition of cell viability” value (SARS-CoV-2 [1]) does the source give for CO[C@@H]1[C@@H](OC)[C@H](C)[C@@](O)(CC(=O)O)O[C@H]1[C@H](C)[C@H]1O[C@@]2(CC[C@@](C)([C@H]3CC[C@@](C)([C@@H]4O[C@@H]([C@H]5O[C@](C)(O)[C@H](C)C[C@@H]5C)C[C@@H]4O[C@@H]4C[C@H](OC)[C@@H](OC)[C@H](C)O4)O3)O2)C[C@H](O)[C@H]1C [Maduramycin] here?
**A.** 313 fold

**Q.** With CC[C@@]1([C@@H]2O[C@@H]([C@H]3O[C@@](O)(CO)[C@H](C)C[C@@H]3C)C[C@@H]2C)CC[C@H]([C@]2(C)CC[C@]3(C[C@H](O)[C@@H](C)[C@@H]([C@@H](C)[C@@H](OC)[C@H](C)C(=O)O)O3)O2)O1 [Monensin] as the molecule, how does the “inhibition of the cytopathogenic effect of SARS-CoV” value (SARS-CoV) read?
**A.** but not SARS-CoV

**Q.** What about the “inhibition of the cytopathogenic effect of MERS-CoV” value (MERS-CoV) of the same molecule?
**A.** could inhibit the cytopathogenic effect of MERS-CoV

**Q.** With CCC(CC)COC(=O)[C@H](C)N[P@](=O)(OC[C@H]1O[C@@](C#N)(c2ccc3c(N)ncnn23)[C@H](O)[C@@H]1O)Oc1ccccc1 [Remdesivir] as the molecule, how does the “selectivity between viral-induced cytopathogenicity and inhibition of cell viability” value (SARS-CoV-2 [1]) read?
**A.** > 67 fold

**Q.** What does the source list for CC[C@@H](C(=O)[C@@H](C)[C@@H](O)[C@H](C)[C@@H]1O[C@@H]([C@@H](CC)C(=O)O)CC[C@@H]1C)[C@H]1O[C@]2(C=C[C@@H](O)[C@]3(CC[C@@](C)([C@H]4CC[C@](O)(CC)[C@H](C)O4)O3)O2)[C@H](C)C[C@@H]1C [Salinomycin]?
**A.** inhibition of the cytopathogenic effect of SARS-CoV (SARS-CoV): but not SARS-CoV; inhibition of the cytopathogenic effect of MERS-CoV (MERS-CoV): could inhibit the cytopathogenic effect of MERS-CoV; inhibition of viral replication (in words) (SARS-CoV-2 [2]): potent inhibition
